We go through two molecules from ChEMBL document CHEMBL1250456, “Synthesis and binding ability of 1,2,3-triazole-based triterpenoid receptors for recognition of Hg(2+) ion” (Bioorg Med Chem Lett, 2010).

Molecules are shown by their SMILES. Activity calls are given as the source filed them. The rule behind the calls is not given here.

Assay [1] in a line: Binding affinity to mercury ion by Hildebrand-Benesi equation analysis.
A short description of assay [2]: Binding affinity to zinc ion by UV-vis titration analysis.
The nature of assay [3]: Binding affinity to cadmium ion by UV-vis titration analysis.
Assay [4] can be described thus: Binding affinity to magnesium ion by UV-vis titration analysis.
Assay [5] in a line: Binding affinity to copper ion by Hildebrand-Benesi equation analysis.

`COC(=O)[C@@]1(C)CC[C@]2(C)CC[C@]3(C)C(=CC(=O)[C@@H]4[C@@]5(C)C[C@H](OC(=O)Cn6cc(COc7ccccc7C=O)nn6)[C@@H](OC(=O)Cn6cc(COc7ccccc7C=O)nn6)C(C)(C)[C@@H]5CC[C@]43C)[C@@H]2C1`: the values for the Ka in assay [1] and in assay [5] were 3 ×10⁴ /M and 1.6 ×10³ /M, respectively. The outcome in assay [2], in assay [3] and in assay [4] was inactive.
`COC(=O)[C@@]1(C)CC[C@]2(C)CC[C@]3(C)C(=CC(=O)[C@@H]4[C@@]5(C)C[C@H](OC(=O)Cn6cc(COc7ccc8ccccc8c7C=O)nn6)[C@@H](OC(=O)Cn6cc(COc7ccc8ccccc8c7C=O)nn6)C(C)(C)[C@@H]5CC[C@]43C)[C@@H]2C1`: the Ka in assay [1] stood at 2.7 ×10⁴ /M; in assay [5] it was 5 ×10³ /M. The outcome in assay [2], in assay [3] and in assay [4] was inactive.
